Laboratory results from publication PMC6868281, “In vivo clonal expansion and phenotypes of hypocretin-specific CD4^+ T cells in narcolepsy patients and controls” (Nature Communications, 2019).

How the values were obtained:
[1] = molecular target: soluble DQ6 (HLA-DQA1*01:02/DQB1*06:02) (Homo sapiens, UniProt P01909+P01920, A157G/A45G/C70R/E118A/E183D/E77G/F83G/G63E/H151Q/H199R/H252R/H253Q/I129T/I235V/I88M/INS77G/K197Q/L117V/L119F/L178F/L71W/L74F/L85Q/L91A/L98M/N214S/P87R/Q116E/Q76K/R102G/R240Q/R75S/R78G/S102Y/S185I/S41F/S97I/T121G/T122I/T172A/T86R/V229M/V68A/V73E/Y34C/Y41F/Y58L); assay: Peptide competition assay: inhibition of DQ6 binding of biotinylated EBV486–500; conditions: test peptide 40 μM, 20 h
Experimental: To identify DQ6-restricted T epitopes in prepro-HCRT (the HCRT precursor), we used a modified version of the peptide-loading assay[31] in which HCRT peptides were tested for the ability to inhibit DQ6-binding of EBV486–500, a known DQ6-binding epitope derived from Epstein-Bar virus. We evaluated overlapping 15-mer peptides, offset by four amino acids (aa), covering the entire prepro-HCRT sequence (Supplementary Data 1). […] These were consistent with in silico peptide-binding predictions using the NetMHCIIpan3.2 software[33] (Supplementary Fig. 1a–c). The nine peptides span five regions (i–v) of prepro-HCRT. A strong binder (>75% competition), HCRT1–15, was within the signal peptide region (i) and contained a 9-aa core, […], previously shown to bind DQ6 by X-ray structure. Two overlapping peptides span the C-terminus of the signal peptide and N-terminus of the secreted HCRT1 neurotransmitter. This region (ii) contained three possible registers as predicted by NetMHCIIpan3.2 using nonamers (Supplementary Fig. 1d). […]
Fig. 2 DQ6-binding cores in prepro-HCRT and their structural impacts. a Thirty overlapping peptides covering prepro-HCRT were added, individually, into a reaction containing soluble DQ6, bio-EBV486–500 peptide, and HLA-DM (a peptide loading catalyst). DQ6-associated bio-EBV486–500 was measured at steady state by ELISA[31]. %Competition = 1−%DQ6/EBV binding. […]

[2] = system: TCR27 (TRAJ24+ TCR) in J76-NFATRE-luc Jurkat cells; assay: T cell activation assay using NFAT-RE luciferase reporter, TCR27 Jurkat transfectants with K562-DQ6 APCs; type: cell-based, human; parameters: dose or concentration left out as unconfirmed; conditions: HCRT peptide, 1 × 10^5 K562-DQ6 APCs + 1 × 10^5 TCR27 J76-NFATRE-luc cells, 37 °C, 1 day; Nano-Glo chemiluminescence
Source text: Fig. 6 Validation of tetramer binding and TCR signaling. a TCRs tested by transfection into Jurkat-luciferase reporter system. b Dot-plots of Jurkat transfectants expressing TCRs as shown in a. Expression of GFP indicates a successful transfection of plasmids directing the expression of TCRs. c Tetramer staining of TCR^+ Jurkat cells with percentages of tetramer^+ cells indicated. d MFIs of the tetramer-associated signal on the surface of TCR^+ cells are compared. e Jurkat cells expressing the indicated TCR were incubated with DQ6-expressing APCs (HLA class II^- K562 cells transfected with DQ6) in the presence of HCRT peptides or control stimuli: PBS (negative) or anti-CD3/anti-CD28 Abs (positive). Luciferase activity reflecting TCR-mediated signaling was measured and analyzed as previously described. […] Significance (P < 0.05, bolded) is determined using t-test comparing the indicated TCR and the TCR control
To encode the entire α/β chains of a candidate TCR, the nucleotide sequences for CDR3α and CDR3β (Supplementary Data 3) were incorporated in frame with the corresponding V(D)J genes (IMGT/V-QUEST[43]). TCRα/β genes were then synthesized and cloned into a plasmid pEF1a-TCRA_2A_TCRB_IRES-AcGFP1 (by GenScript). Each reconstructed plasmid uses a mammalian promoter, EF1a to direct co-expression of α and β chains of one candidate TCR. TCRA and TCRB are separated by the 2A self-cleaving peptide sequence. For selection purposes, the plasmid also encodes the green fluorescence protein (GFP) and neomycin resistance gene, with expression driven by separate promoters. […]
The TCR transfectants of J76-NFATRE-luc cells expresses the NFAT-RE (response element)-luciferase reporter gene allowing the conversion of T cell activation signaling to luciferase activity. […] The co-culture was incubated with various stimuli at 37 °C for 1 day before quantification of the luciferase activity. […] The mixture was then transferred to a flat-bottom white 96-well plate (Costar) for a measurement of chemiluminescence using a plate reader.

[3] = system: CD4+ T cells from T1N donors; assay: In vitro peptide stimulation of CD4+ T cells with peptide-loaded fixed T2DQ6 cells, then DQ6-peptide tetramer staining; type: cell-based, human; conditions: for Frequency of corresponding DQ6-peptide tetramer+/CD4+ T cells after in vitro stimulation with the peptide: T2DQ6 pulsed with 1 μM peptide, co-culture with CD4+ T cells of T1N donors, IL-7/IL-2, with vs without peptide, n = 13 donors (HCRT peptides)
Experimental: Fig. 3 Tetramer^+/CD4^+ T cells in DQ6^+ donors. a Dot-plots of CD4^+ T cells stimulated in vitro with the indicated peptides followed by staining with the indicated tetramers. Frequencies (%) of tetramer^+/CD4^+ T cells are indicated. b Comparison between frequencies of tetramer^+ T cells from the same T1N donor (paired as indicated) with and without peptide stimulation. Significance (P < 0.05, bolded) is determined using the paired samples t-test (n = 13 donors). c Enrichment (with peptide stimulation vs. without) of DQ6-HCRT56–69 tetramer^+/CD4^+ T cells in HCRT87–100 peptide stimulated culture. d Frequencies or e tetramer-binding ranks (mean index fluorescence intensity) of tetramer^+ T cells from patients and controls (sample information summarized in Table 1) stained with the indicated tetramers. Statistical analysis compares control and patient samples within each tetramer specificity. Significance (P < 0.05, bolded) is determined using the unequal variance t-test. The error bar represents mean ± SEM
To test for the presence of DQ6-HCRTpeptide tetramer^+/CD4^+ T cells, a peptide-loaded antigen-presenting cell (APC) line T2DQ6 (fixed to limit APC proliferation) was co-cultured with T cells for DQ6-restricted antigen stimulation. T2DQ6 was constructed by stable transfection of DQ6 (DQA1*01:02/DQB1*06:02) into T2, a class II-deficient TxB hybrid cell[31]. T2DQ6 cells were maintained in IMDM, GlutaMAX supplemented media (Thermo Fisher Scientific) with 10% HI FBS, 1% penicillin/streptomycin (P/S) and 1 mg/ml G418 (to maintain selective pressure on DQ6 transfectants). To load antigen, T2DQ6 cells were pulsed with peptides (i.e., EBV486–500, HCRT56–69, HCRT87–100, synthesized by Genscript) at 1 μM final concentration and incubated for 6 h at 37 °C. After peptide loading, 10 million T2DQ6 cells were washed with phosphate buffered saline (PBS) and then fixed by incubating with 0.025% glutaraldehyde in 2 ml PBS at RT for 30 s. After the addition of another 2 ml PBS, the cells were incubated for another 10 min at RT. Fixed T2DQ6 was washed twice with PBS and once with complete RPMI (RPMI 1640 medium supplemented with 10% HI human AB serum, 2 mM glutamine and 1% PS, Thermo Fisher Scientific) before mixing with CD4^+ T cells. Human PBMCs frozen in NUNC tubes were thawed quickly at 37 °C and added slowly to 10 ml warm complete RPMI. PBMCs were pelleted and resuspended in cold buffer for CD4^+ T cell isolation. Cells were isolated from the PBMCs by negative selection, using the CD4^+ cell isolation kit, according to the manufacturer’s instructions (Miltenyi Biotec). […]

| Substance | TCR-mediated signaling (luciferase activity) of TCR27 transfectants [2] | Frequency of corresponding DQ6-peptide tetramer+/CD4+ T cells after in vitro stimulation with the peptide [3] | further results |
| --- | --- | --- | --- |
| ALLSSGAAAQPLPDC [Hcrt25-39, 15-mer overlapping peptide of prepro-HCRT] |  |  | DQ6 binder class by %Competition ([1]; same assay as E1, pH 4.6, 37 °C): strong |
| SGNHAAGILTM-NH2 [HCRT87–97-NH2] | stronger signaling |  |  |
| MNLPSTKVSWAAV [HCRT1–13] | null function |  |  |
| EBV486-500: known DQ6-binding epitope derived from Epstein-Barr virus nuclear antigen; positive control peptide [reference compound] |  | enrichment |  |
| SGNHAAGILTMGRR [HCRT87–100] | moderate TCR-mediated signaling | significantly increased | DQ6-HCRT56–69 tetramer+/CD4+ T cells in HCRT87–100 peptide stimulated culture ([3]; with peptide stimulation vs without, some T1N donors): in vitro enrichment |
| MNLPSTKVSWAAVTL [Hcrt1-15, 15-mer overlapping peptide of prepro-HCRT] |  |  | %Competition (inhibition of the indicator EBV peptide binding to DQ6) ([1]; 1 μM biotinylated EBV486–500, 25 nM thrombin-cleaved DQ6-CLIP87–101, 100 nM DM, acetate pH 4.6, 37 °C, DELFIA Eu-streptavidin time-resolved fluorescence, %Competition = 1−%DQ6/EBV binding, mean, n = 4): > 75% |
| AGNHAAGILTLGKR [HCRT56–69] |  | significantly increased |  |
